Assay results: PMC7530128 (Journal of the American Chemical Society, 2020)

T1: CblD (Homo sapiens, UniProt Q9H3L0)
T1 sequence (Q9H3L0 1-296): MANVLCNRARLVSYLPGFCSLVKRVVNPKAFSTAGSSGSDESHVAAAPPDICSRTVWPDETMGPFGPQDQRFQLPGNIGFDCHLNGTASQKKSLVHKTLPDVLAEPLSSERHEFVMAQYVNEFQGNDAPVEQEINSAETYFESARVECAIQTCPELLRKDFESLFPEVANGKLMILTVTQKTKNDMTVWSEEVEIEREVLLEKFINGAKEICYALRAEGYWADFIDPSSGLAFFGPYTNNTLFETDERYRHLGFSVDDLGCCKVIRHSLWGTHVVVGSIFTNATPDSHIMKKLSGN

T2: CblC (Homo sapiens, UniProt Q9Y4U1)
T2 chain: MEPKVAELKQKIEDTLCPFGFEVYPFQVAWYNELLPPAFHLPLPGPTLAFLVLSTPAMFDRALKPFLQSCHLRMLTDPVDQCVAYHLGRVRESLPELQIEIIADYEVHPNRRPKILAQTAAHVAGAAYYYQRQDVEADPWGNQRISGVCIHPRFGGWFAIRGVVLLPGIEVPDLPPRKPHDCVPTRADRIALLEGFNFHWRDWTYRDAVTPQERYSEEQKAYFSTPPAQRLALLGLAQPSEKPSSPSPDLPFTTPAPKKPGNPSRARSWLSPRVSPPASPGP

B1: CblD (protein)
chain: SDESHVAAAPPDICSRTVWPDETMGPFGPQDQRFQLPGNIGFDCHLNGTASQKKSLVHKTLPDVLAEPLSSERHEFVMAQYVNEFQGNDAPVEQEINSAETYFESARVECAIQTCPELLRKDFESLFPEVANGKLMILTVTQKTKNDMTVWSEEVEIEREVLLEKFINGAKEICYALRAEGYWADFIDPSSGLAFFGPYTNNTLFETDERYRHLGFSVDDLGCCKVIRHSLWGTHVVVGSIFTNATPDSHIMKKLSGN
modifications: cobalamin

Tests used:
CblD = biological target: T1, CblD; test: UV-visible titration; assay type: binding
CblC = biological target: T2, CblC; test: ITC

| Molecule | Kd (CblD) [nM] | Kd (CblC) [nM] |
| --- | --- | --- |
| H2OCbl | 1000 ± 400 | – |
| B1 | – | 40 |
